# According to US4201866A, “O-Hemi-succinate of propranolol” (American Home Products Corporation, priority 1977, dated 1980):
# “And” between values parts separate entries of the source, which are not always exact repeats. Equal values may be shown once. Where a name gives a salt, the structure may show the parent alone. Read-outs that look alike come from different tables or passages of the source.
# Legend:
# [1] = Intravenous administration of propranolol HCl and propranolol-o-hemi-succinate HCl; plasma levels of free propranolol (Example 3); assay type: in vivo, beagle dogs; conditions: i.v., 20 mg propranolol HCl or equivalent
# Procedure: (§1) Plasma was analyzed for free propranolol by a TLC fluorometric procedure. Two ml samples were mixed with 2 ml of pH 10 buffer and extracted with 25 ml of ethyl ether. A 20 ml aliquot from the ether phase was evaporated to dryness and the dry residue was dissolved in 100 μl of ethanol. Twenty-five μl aliquots were spotted on TLC plates of silica gel along with standard solutions of propranolol. The plates were developed in a saturated tank containing the solvent system methanol (100 ml): concentrated NH4 OH (0.4 ml). After development, the plates were dried and sprayed with a 50% solution of propylene glycol in water. They were then read in the fluorescence mode of a Schoeffel spectrodensitometer. The limit of reliable quantitation was 2 ng. of propranolol per ml of plasma.
# In this experiment, the same four dogs used in Example 2 were administered a 20 mg intravenous dose of propranolol HCl on one experimental day and an equivalent dose of the o-hemi-succinate on a second day. A period of one week elapsed between each administration. Blood samples were collected and analyzed as above.
# [2] = Oral administration of a reduced dose of propranolol-o-hemi-succinate hydrochloride; plasma levels of free propranolol (Example 4); assay type: in vivo, beagle dogs
# Procedure: Two beagle dogs were given an oral dose of 13.4 mg of propranolol-O-hemi-succinate hydrochloride (equivalent to 10 mg. propranolol HCl). Blood samples were obtained at regular intervals after drug administration and plasma analyzed for free propranolol. Plasma levels of free propranolol were compared to those obtained following administration of 80 mg dose of propranolol HCl.
# [3] = Oral administration of propranolol-o-hemi-succinate HCl and propranolol HCl; plasma levels of free propranolol (Example 2); assay type: in vivo, beagle dogs; conditions: 80 mg propranolol HCl or equivalent
# Procedure: In this experiment, four beagle dogs were given an 80 mg. oral dose of propranolol HCl or an equivalent dose of the o-hemi-succinate. The animals were divided into two groups of two, each group receiving the drugs according to a crossover design. The crossover experiment was repeated twice. A period of at least one week elapsed between each dosing day. Blood samples were obtained at regular intervals after dosing a plasma was analyzed for free propranolol concentrations.
# as §1
# [4] = cited from earlier work
structure (smiles),measurement,setting,value
"CC(C)NCC(O)COc1cccc2ccccc12 (centres unmarked) [propranolol HCl, 1-isopropyl-amino-3-(1-naphthoxy)-2-propanol]",Plasma level of free propranolol,"[1]; 0 h, individual dogs",0 ng/mL
same,Mean plasma level of free propranolol,"[1]; 0 h, mean",0 ng/mL
same,Plasma level of free propranolol,"[1]; 1/2 hr after dosing, individual dogs, 30 min",232 ng/mL and 269 ng/mL and 144 ng/mL
same,Plasma level of free propranolol,"[1]; 5 min after dosing, individual dogs, 5 min",391 ng/mL and 312 ng/mL and 376 ng/mL and 194 ng/mL
same,Plasma level of free propranolol,"[1]; 10 min after dosing, individual dogs, 10 min",368 ng/mL and 319 ng/mL and 177 ng/mL
same,Plasma level of free propranolol,"[1]; 15 min after dosing, individual dogs, 15 min",320 ng/mL and 271 ng/mL and 149 ng/mL
same,Plasma level of free propranolol,"[1]; 1 hr after dosing, individual dogs, 60 min",207 ng/mL and 229 ng/mL and 128 ng/mL
same,Plasma level of free propranolol,"[1]; 2 hr after dosing, individual dogs, 120 min",149 ng/mL and 119 ng/mL and 122 ng/mL
same,Plasma level of free propranolol,"[1]; 4 hr after dosing, individual dogs, 240 min",114 ng/mL and 87 ng/mL and 61 ng/mL
same,Plasma level of free propranolol,"[1]; 6 hr after dosing, individual dogs, 360 min",45 ng/mL and 28 ng/mL and 39 ng/mL
same,concentration at 0.5 h,"[1]; dog, plasma, iv, 20 mg, 1/2 hr after dosing, individual dogs, read-out: Plasma level of free propranolol",280 ng/mL
same,concentration at 0.5 h,"[1]; dog, plasma, iv, 20 mg, 1/2 hr after dosing, mean, read-out: Mean plasma level of free propranolol",231 ng/mL
same,concentration at 5 min,"[1]; dog, plasma, iv, 20 mg, 5 min after dosing, mean, read-out: Mean plasma level of free propranolol",318 ng/mL
same,concentration at 10 min,"[1]; dog, plasma, iv, 20 mg, 10 min after dosing, mean, read-out: Mean plasma level of free propranolol",288 ng/mL
same,concentration at 0.25 h,"[1]; dog, plasma, iv, 20 mg, 15 min after dosing, mean, read-out: Mean plasma level of free propranolol",247 ng/mL
same,concentration at 1 h,"[1]; dog, plasma, iv, 20 mg, 1 hr after dosing, individual dogs, read-out: Plasma level of free propranolol",240 ng/mL
same,concentration at 1 h,"[1]; dog, plasma, iv, 20 mg, 1 hr after dosing, mean, read-out: Mean plasma level of free propranolol",201 ng/mL
same,concentration at 2 h,"[1]; dog, plasma, iv, 20 mg, 2 hr after dosing, individual dogs, read-out: Plasma level of free propranolol",191 ng/mL
same,concentration at 2 h,"[1]; dog, plasma, iv, 20 mg, 2 hr after dosing, mean, read-out: Mean plasma level of free propranolol",145 ng/mL
same,concentration at 4 h,"[1]; dog, plasma, iv, 20 mg, 4 hr after dosing, mean, read-out: Mean plasma level of free propranolol",79 ng/mL
same,concentration at 6 h,"[1]; dog, plasma, iv, 20 mg, 6 hr after dosing, individual dogs, read-out: Plasma level of free propranolol",53 ng/mL
same,concentration at 6 h,"[1]; dog, plasma, iv, 20 mg, 6 hr after dosing, mean, read-out: Mean plasma level of free propranolol",41 ng/mL
same,AUC at 6 h,"[1]; dog, plasma, iv, 20 mg, individual dogs, read-out: AUC 0-6 hr of free propranolol",974 ng·h/mL
same,AUC at 6 h,"[1]; dog, plasma, iv, 20 mg, read-out: average AUC of free propranolol",746 ng·h/mL
same,AUC 0-6 hr of free propranolol,"[1]; individual dogs, 360 min",744 ng·h/mL and 615 ng·h/mL and 534 ng·h/mL
same,Plasma level of free propranolol,"[2]; 0 h, 80 mg propranolol HCl or 13.4 mg hemi-succinate HCl, individual dogs",0
same,AUC of free propranolol,"[2]; 13.4 mg hemi-succinate HCl or 80 mg propranolol HCl, dog #353 (101, 92), dog #250 (114, 168), 360 min",168
same,Plasma level of free propranolol,"[2]; 1/2 hour after dosing, 80 mg propranolol HCl or 13.4 mg hemi-succinate HCl, individual dogs, 30 min",18
same,Plasma level of free propranolol,"[2]; 1 hour after dosing, 80 mg propranolol HCl or 13.4 mg hemi-succinate HCl, individual dogs, 60 min",44
same,Plasma level of free propranolol,"[2]; 2 hours after dosing, 80 mg propranolol HCl or 13.4 mg hemi-succinate HCl, individual dogs, 120 min",51 and 24
same,Plasma level of free propranolol,"[2]; 4 hours after dosing, 80 mg propranolol HCl or 13.4 mg hemi-succinate HCl, individual dogs, 240 min",26 and 7
same,Plasma level of free propranolol,"[2]; 6 hours after dosing, 80 mg propranolol HCl or 13.4 mg hemi-succinate HCl, individual dogs",0
same,AUC at 6 h,"[2]; dog, plasma, po, 80 mg, 13.4 mg hemi-succinate HCl or 80 mg propranolol HCl, dog #353 (101, 92), dog #250 (114, 168)",92 ng·h/mL
same,concentration at 0.5 h,"[2]; dog, plasma, po, 80 mg, 1/2 hour after dosing, 80 mg propranolol HCl or 13.4 mg hemi-succinate HCl, individual dogs, read-out: Plasma level of free propranolol",10 ng/mL
same,concentration at 1 h,"[2]; dog, plasma, po, 80 mg, 1 hour after dosing, 80 mg propranolol HCl or 13.4 mg hemi-succinate HCl, individual dogs, read-out: Plasma level of free propranolol",38 ng/mL
same,concentration at 6 h,"[2]; dog, plasma, po, 80 mg, 6 hours after dosing, 80 mg propranolol HCl or 13.4 mg hemi-succinate HCl, individual dogs, read-out: Plasma level of free propranolol",9 ng/mL
same,Plasma level of free propranolol,"[3]; 0 h, individual dogs",0 ng/mL
same,Mean plasma level of free propranolol,"[3]; 0 h, mean of Study 1, Study 2 or overall",0 ng/mL
same,C.V. of overall mean AUC 0-6 hr,[3],65%
same,s.d. of overall mean AUC 0-6 hr,[3],87 ng·h/mL
same,AUC 0-6 hr of free propranolol,"[3]; individual dogs, listed as propranolol hydrochloride, 360 min",69 ng·h/mL and 63 ng·h/mL and 29 ng·h/mL and 160 ng·h/mL and 189 ng·h/mL and 171 ng·h/mL and 297 ng·h/mL and 99 ng·h/mL
same,Plasma level of free propranolol,"[3]; 1/2 hr after dosing, individual dogs",0 ng/mL
same,Plasma level of free propranolol,"[3]; 1/2 hr after dosing, individual dogs, 30 min, listed as propranolol hydrochloride, 30 min",23 ng/mL and 103 ng/mL and 24 ng/mL
same,Plasma level of free propranolol,"[3]; 1/2 hr after dosing, individual dogs, listed as propranolol hydrochloride",trace
same,Plasma level of free propranolol,"[3]; 1 hr after dosing, individual dogs, listed as propranolol hydrochloride",trace and 0 ng/ml
same,Plasma level of free propranolol,"[3]; 1 hr after dosing, individual dogs, listed as propranolol hydrochloride, 60 min",11 ng/mL and 56 ng/mL and 31 ng/mL and 101 ng/mL and 24 ng/mL
same,Plasma level of free propranolol,"[3]; 2 hr after dosing, individual dogs, listed as propranolol hydrochloride",trace
same,Plasma level of free propranolol,"[3]; 2 hr after dosing, individual dogs, listed as propranolol hydrochloride, 120 min",23 ng/mL and 14 ng/mL and 45 ng/mL and 51 ng/mL and 65 ng/mL and 19 ng/mL
same,Plasma level of free propranolol,"[3]; 4 hr after dosing, individual dogs, listed as propranolol hydrochloride",trace
same,Plasma level of free propranolol,"[3]; 4 hr after dosing, individual dogs, listed as propranolol hydrochloride, 240 min",26 ng/mL and 14 ng/mL and 12 ng/mL and 36 ng/mL and 33 ng/mL and 17 ng/mL
same,Plasma level of free propranolol,"[3]; 6 hr after dosing, individual dogs, listed as propranolol hydrochloride",0 ng/ml and trace
same,Plasma level of free propranolol,"[3]; 6 hr after dosing, individual dogs, listed as propranolol hydrochloride, 360 min",17 ng/mL and 21 ng/mL and 6 ng/mL
same,half-life,"[3]; dog, plasma",1.8 h
same,AUC at 6 h,"[3]; dog, plasma, po, 80 mg, read-out: average AUC (0-6 hr.) of free propranolol, overall study",132 ng·h/mL
same,unchanged active material reaching the systemic circulation after oral administration,[4]; because of extensive metabolism,little unchanged active material
same,patient to patient variation of plasma levels,[4]; oral,large patient to patient variation
